Measured values from US10440955B2, “Methods comprising a biocidal polyamine” (Curza Global, LLC, priority 2013, dated 2019).
In brackets after ≈: the same amount, converted by molar mass. Counter-ions that a name gives are not always drawn. Like-named read-outs stand apart in the source and are kept apart here.

Tests used:
[1] = tested on: MRSA; assay: MIC, 96-well CAMHB, 10^5 to 10^2 CFU/mL in 24 hours; format: cell-based, Staphylococcus aureus; details: for MIC: Staphylococcus aureus, MRSA, read-out: MIC (MRSA)
Protocol: (§1) To determine the MIC of polyamine compounds, the protocol described herein was used.
In brief, a 0.5 McFarland of each bacterial isolate was made. A 0.5 McFarland is a measure of turbidity in a liquid sample that contains approximately 1×10^∧8 CFU/mL. The 0.5 McFarland standard was diluted in cation adjusted Mueller Hinton Broth (CAMHB), and 50 μL of broth were added to a well of a 96-well plate. In addition, 50 μL of CAMHB that contained a desired concentration of antimicrobial were also added to the well for a final volume of 100 μL and a final concentration of approximately 5×10^4 CFU/well (which equated to approximately 5×10^5 CFU/mL). Each well contained a desired amount of polyamine compound in order to experimentally determine the MIC. Each 96-well plate was incubated at 37° C. for 24 hours. The contents of each well were plated on tryptic soy agar (TSA). TSA plates were incubated for 37° C. for 24 hours after which the number of CFU were counted and used to calculate the CFU/mL that remained after exposure to varying concentrations of compound. This procedure was repeated n=8 times for each concentration of antimicrobial. […]

[2] = tested on: P. aeruginosa; assay: as above; format: cell-based, Pseudomonas aeruginosa; details: for MIC: Pseudomonas aeruginosa
Protocol: as §1
In brief, a 0.5 McFarland of each bacterial isolate was made. A 0.5 McFarland is a measure of turbidity in a liquid sample that contains approximately 1×10^∧8 CFU/mL. The 0.5 McFarland standard was diluted in cation adjusted Mueller Hinton Broth (CAMHB), and 50 μL of broth were added to a well of a 96-well plate. In addition, 50 μL of CAMHB that contained a desired concentration of antimicrobial were also added to the well for a final volume of 100 μL and a final concentration of approximately 5×10^4 CFU/well (which equated to approximately 5×10^5 CFU/mL). Each well contained a desired amount of polyamine compound in order to experimentally determine the MIC. Each 96-well plate was incubated at 37° C. for 24 hours. The contents of each well were plated on tryptic soy agar (TSA). TSA plates were incubated for 37° C. for 24 hours after which the number of CFU were counted and used to calculate the CFU/mL that remained after exposure to varying concentrations of compound. This procedure was repeated n=8 times for each concentration of antimicrobial.

[3] = tested on: L-929 cells (ATCC CCL-1); assay: Minimal Essential Media (MEM) Elution cytotoxicity test; format: cell-based; details: Table 10A
Protocol: Summary: The Minimal Essential Media (MEM) Elution test was designed to determine the cytotoxicity of extractable substances. The test article was added to cell monolayers and incubated. The cell monolayers were examined and scored based on the degree of cellular destruction.
Acceptance Criteria: The United States Pharmacopeia & National Formulary (USP <87>) states that the test article meets the requirements, or receives a passing score (Pass) if the reactivity grade is not greater than grade 2 or a mild reactivity.
Acceptance criteria were based upon the negative and media controls receiving “0” reactivity grades and positive controls receiving a 3-4 reactivity grades (moderate to severe).
The cell monolayers were examined microscopically. The wells were scored as to the degree of discernable morphological cytotoxicity on a relative scale of 0 to 4:
The results from the three wells were averaged to give a final cytotoxicity score.
[…] This initial concentration was then diluted 1: 2, 1:4, 1:8, and 1:16. Multiple well cell culture plates were seeded with a verified quantity of industry standard L-929 cells (ATCC CCL-1) and incubated until approximately 80% confluent. The test articles and control extracts were added to the cell monolayers in triplicate. The cells were incubated at 37±1° C. with 5±1% CO2 for 48±3 hours.

[4] = Table 5, read-out: MIC (P. aeruginosa)
[5] = read-out: MIC (P. aeruginosa), Table 5

MIC ([1]; Table 5)	MIC [2, 4]	Molecule	MIC [1]	also measured
< 50 µM	< 50 µM	O=C1NCCCN1CCCNCc1cc(CNCCCN2CCCNC2=O)cc(-c2ccccc2)c1 [CZ-89, 1,1′-((([1,1′-biphenyl]-3,5diylbis(methylene))bis(azanediyl))bis(propane-3,1-diyl))bis(tetrahydropyrimidin-2(1H)-one)]	–	–
–	–	NCCCNCc1cc(CNCCCN)cc(-c2ccccc2)c1 [CZ-77, N^1,N^1′-([1,1′-biphenyl]-3,5-diylbis(methylene))bis(propane-1,3-diamine), hydrochloride salt]	< 50 µM	MIC [2, 5]: < 50 µM
< 50 µM	< 50 µM	NCCCNCCCNCc1cc(CNCCCNCCCN)cc(-c2ccc(C(=O)N3CCCCC3)cc2)c1 [CZ-88, (3′,5′-Bis(((3-((3-aminopropyl)amino)propyl)amino)methyl)-[1,1′-biphenyl]-4-yl) (piperidin-1-yl)methanone]	–	–
< 50 µM	< 50 µM	CC(C)(C)OC(=O)NCCCNCCCNCc1cc(CNCCCNCCCN)cc(CNCCCNCCCN)c1 [CZ-51, tert-butyl (3-((3-((3,5-bis(((3-((3-aminopropyl)amino)propyl)amino)methyl)-benzyl)amino)propyl)amino)propyl)carbamate]	–	–
–	–	NCCCCCCCCCCCCNCc1ccccc1 [CZ-5, N^1-benzyldodecane-1,12-diamine, hydrochloride salt]	> 100 µM	–
< 50 µM	< 50 µM	CCCCCCNCCCNCCCNCc1cc(CNCCCNCCCNCCCCCC)cc(-c2ccccc2)c1 [CZ-114, N^1,N^1′-([1,1′-biphenyl]-3,5-diylbis(methylene))bis(N^3-(3-(hexylamino)propyl)propane-1,3-diamine)]	–	–
–	–	tri-tert-butyl-(((((benzene-1,3,5-triyltris(methylene))tris(azanediyl))tris-(propane-3,1-diyl))tris(azanediyl))tris(propane-3,1-diyl))tricarbamate, hydrochloride salt [CZ-54]	–	MIC (MRSA) ([1]; Table 5): +++ (+++ = 50 μM > MIC. MIC results of “>n μM” or “<n μM” will also be designated as +++ if n <50.); MIC (P. aeruginosa) ([2]; Table 5): +++ (+++ = 50 μM > MIC. MIC results of “>n μM” or “<n μM” will also be designated as +++ if n <50.)
–	–	NCCCNCCCNCc1cc(CNCCCNCCCN)cc(-c2ccc(F)cc2)c1 [CZ-75, N^1,N^1′-((4′-fluoro-[1,1′-biphenyl]-3,5-diyl)bis(methylene))bis(N3-(3-aminopropyl)propane-1,3-diamine), hydrochloride salt]	< 50 µM	MIC [2, 5]: < 50 µM
–	–	NCCCNCCCNCc1cc(CNCCCNCCCN)cc(OCC2CCCCC2)c1 [CZ-101, N^1,N^1′-((5-(cyclohexylmethoxy)-1,3-phenylene)bis(methylene))bis(N^3-(3-aminopropyl)propane-1,3-diamine), hydrochloride salt]	< 50 µM	MIC [2, 5]: < 50 µM
–	–	NCCCCNCc1ccccc1 [CZ-3, N^1-benzylbutane-1,4-diaminium chloride]	–	MIC [2, 5]: > 100 µM
< 50 µM	50 to 100 µM (≈ 29.1 to 58.3 µg/mL)	CC(C)CNCCCNCCCNCc1cc(CNCCCNCCCNCC(C)C)cc(OCc2ccccc2)c1 [CZ-106, N^1,N^1′-((5-(benzyloxy)-1,3-phenylene)bis(methylene))bis(N^3-(3-(isobutylamino)propyl)propane-1,3-diamine)]	–	–
–	–	NCCCNCCCNCc1cc(CNCCCNCCCN)cc(OCc2ccccc2)c1 [CZ-95, N^1,N^1′-((5-(Benzyloxy)-1,3-phenylene)bis(methylene))bis(N^3-(3-aminopropyl)propane-1,3-diamine), hydrochloride salt]	< 50 µM	MIC [2, 5]: < 50 µM
–	–	CCCCOc1cc(CNCCCNCCCN)cc(CNCCCNCCCN)c1 [CZ-76, N^1,N^1′-((5-butoxy-1,3-phenylene)bis(methylene))bis(N3-(3-aminopropyl)propane-1,3-diamine), hydrochloride salt]	< 50 µM	MIC [2, 5]: 50 to 100 µM
< 50 µM	< 50 µM	CC(C)CNCCCCCCCCCCCCNCc1cccc(-c2cc(CNCCCCCCCCCCCCNCC(C)C)cc(CNCCCCCCCCCCCCNCC(C)C)c2)c1 [CZ-117, N^1,N^1′,N^1″-([1,1′-biphenyl]-3,3′,5-triyltris(methylene))tris(N^12-isobutyldodecane-1,12-diamine)]	–	–
–	–	CN(C)CCCCCCCCCCCCN(C)Cc1ccccc1 [CZ-10, N^1-Benzyl-N^1,N^12,N^12-trimethyldodecane-1,12-diamine, hydrochloride salt]	> 100 µM	–
–	–	NCCCNCCCNCc1cc(CNCCCNCCCN)cc(-c2cc(C(F)(F)F)cc(C(F)(F)F)c2)c1 [CZ-70, N^1,N^1′-((3′,5′-bis(trifluoromethyl)-[1,1′-biphenyl]-3,5-diyl)bis(methylene))bis(N^3-(3-aminopropyl)propane-1,3-diamine), hydrochloride salt]	< 50 µM	MIC [2, 5]: < 50 µM
< 50 µM	< 50 µM	CCCCCCNCCCNCCCNCc1cccc(CNCCCNCCCNCCCCCC)c1 [CZ-113, N^1,N^1′-(1,3-phenylenebis(methylene))bis(N^3-(3-(hexylamino)propyl)propane-1,3-diamine)]	–	–
< 50 µM	< 50 µM	CCCCCCNCCCNCCCCNCc1cc(CNCCCCNCCCNCCCCCC)cc(-c2ccccc2)c1 [CZ-118, N^1,N^1′-([1,1′-biphenyl]-3,5-diylbis(methylene))bis(N^4-(3-(hexylamino)propyl)butane-1,4-diamine)]	–	–
–	–	NCCCCCCNCc1ccccc1 [CZ-9, N^1-benzylhexane-1,6-diamine, hydrochloride salt]	> 100 µM	–
< 50 µM	< 50 µM	NCCCCCCCCCCCCNCc1cc(CNCCCCCCCCCCCCN)cc(-c2ccccc2)c1 [CZ-115, N^1,N^1′-([1,1′-biphenyl]-3,5-diylbis(methylene))bis(dodecane-1,12-diamine)]	–	–
< 50 µM	< 50 µM	CCCCCCNCCCNCCCCNCc1cccc(CNCCCCNCCCNCCCCCC)c1 [CZ-119, N^1,N^1′-(1,3-phenylenebis(methylene))bis(N^4-(3-(hexylamino)propyl)butane-1,4-diamine)]	–	–
–	–	CC(C)Oc1ccc(-c2cc(CNCCCNCCCN)cc(CNCCCNCCCN)c2)cc1CNCCCNCCCN [CZ-66, N^1,N^1′,N^1″-((4′-isopropoxy-[1,1′-biphenyl]-3,3′,5-triyl)tris(methylene))-tris(N^3-(3-aminopropyl)propane-1,3-diamine), hydrochloride salt]	–	Results Pass/Fail ([3]; 25 μg/mL): Fail (a numerical grade greater than 2 is considered a cytotoxic effect, or a failing score (Fail)); Results Pass/Fail ([3]; dilution 1:2 of 25 μg/mL): Fail (a numerical grade greater than 2 is considered a cytotoxic effect, or a failing score (Fail)); Results Pass/Fail ([3]; dilution 1:4 of 25 μg/mL): Pass (receives a passing score (Pass) if the reactivity grade is not greater than grade 2 or a mild reactivity); Results Pass/Fail ([3]; dilution 1:8 of 25 μg/mL): Pass (receives a passing score (Pass) if the reactivity grade is not greater than grade 2 or a mild reactivity); Results Pass/Fail ([3]; dilution 1:16 of 25 μg/mL): Pass (receives a passing score (Pass) if the reactivity grade is not greater than grade 2 or a mild reactivity)
–	–	NCCCNCCCNCc1cc(CO)cc(CNCCCNCCCN)c1 [CZ-53, (3,5-bis(((3-((3-aminopropyl)amino)propyl)amino)methyl)phenyl)-methanol, hydrochloride salt]	–	MIC (P. aeruginosa) ([2]; Table 5): ++ to +++
> 100 µM	–	CC(C)(C)OC(=O)NCCCNCCCNCc1cccc(CNCCCNCCCNC(=O)OC(C)(C)C)c1 [CZ-27, di-tert-butyl (((((1,3-phenylenebis(methylene))bis(azanediyl))bis(propane-3,1-diyl))bis(azanediyl))bis(propane-3,1-diyl))dicarbamate]	–	–

Molecule	MIC ([1]; Table 5)	MIC [2, 4]	MIC [1]	also measured
NCCCNC(=O)c1cccc(C(=O)NCCCN)c1 [CZ-41]	> 100 µM	–	–	–
NCCCNCCCNCc1cccc(CNCCCNCCCN)c1 [CZ-25 (Bz)]	< 50 µM	–	–	–
